Holding throughout (format): ADME
Series [1] in a line: Km by incubating with prolyl-4-hydroxylase under standard assay conditions.
The nature of series [2]: Percent Vmax by incubating with prolyl-4-hydroxylase under standard assay conditions.
Series [3] is described as follows: V/K by incubating with prolyl-4-hydroxylase under standard assay conditions.

3 compounds from ChEMBL document CHEMBL1133223, “Mechanistic studies on prolyl-4-hydroxylase: the vitamin C requiring uncoupled oxidation” (Bioorg Med Chem Lett, 2000) can be followed below.

The structures appear in SMILES notation. Square brackets hold non-standard residues; d marks the D form. Peptide text beside a SMILES is read from it. * marks the point of attachment. ΔPro = O=C(O)[C@@H]1C=CCN1; Cbz = O=C(OCc1ccccc1)*

By Km is commonly meant the concentration of substrate that gives half-maximal velocity. For the compound `O=C(O)CNC(=O)[C@@H]1CCCN1C(=O)[C@@H]1CCCN1` (H-Pro-Pro-Gly-OH), the Km in series [1] is 200 µM. Besides, the Vmax in series [2] amounted to 100%.
Taken in the same sequence, the figures for `CCOC(=O)CNC(=O)[C@@H]1C=CCN1C(=O)[C@H](Cc1ccccc1)NC(=O)CNC(=O)OCc1ccccc1` (Cbz-GF[ΔPro]G-OEt) were 200 µM and 95%.
In turn, `CCOC(=O)CNC(=O)[C@@H]1CCCN1C(=O)[C@H](Cc1ccccc1)NC(=O)CNC(=O)OCc1ccccc1` (Cbz-GFPG-OEt) had a V/K in series [3] of 3.4. Moreover, the Km in series [1] was found to be 520 µM. In addition, the Vmax in series [2] is on record as 30%.
